Measurements taken from patent publication US7285552B2, “Drugs containing triazaspiro[5.5]undecane derivatives as the active ingredient” (Ono Pharmaceuticals Co., Ltd., priority 2001, dated 2007).

Experiments:
Type in all cases: cell-based
HIV-1BaL = experiment: Inhibiting activity to HIV-1 infection to human PBMC (p24 antigen, EIA), HIV-1BaL
Experimental: (§1) Human PBMC (peripheral blood mononuclear cell) was isolated from HIV-negative healthy persons by a Ficol-Hipaque density-gradient centrifugation and incubated for 3 days in the presence of 10 μg/ml PHA (phytohemagglutinin). PHA-stimulated PBMC was suspended in RPMI 1640 containing 10% serum to give a density of 1×10^5 cells/ml and poured into a 96-well microplate. Furthermore, in the presence of a sole test compound in various concentrations or in the co-presence with other anti-HIV inhibitor (such as AZT (zidovudin) or AMD 3100), various HIV-1 cell lines of 50 TCID50 (such as HIV-1LAI, HIV-1NL4-3, HIV-1BaL, HIV-1JRFL, HIV-189.6, HIV-1 HIV-1ERS104pre, HIV-1JSL, HIV-1MM, HIV-1TM and HIV-1MOKW) were exposed. After being incubated for 7 days, the amount of HIV-1p24 antigen on the supernatant liquid of the incubation was measured by an EIA method using Lumipulse F (Fuji Rebio).
(§2) Inhibiting effect to human PBMC infected by HIV-1 HIV-1BaL by the joint use of the compound of Example 2(1) and saquinavir (SQV) which is an anti-HIV inhibitor was investigated. Inhibiting effects of both compounds when the p24 amount where the compounds are not added is defined as 100% are shown in terms of % control.
as §2, with “75(54)” for “2(1)”, “inhibitor […]” for “inhibitor”

HIV-189.6 = experiment: Inhibiting activity to HIV-1 infection to human PBMC (p24 antigen, EIA), HIV-1 89.6
Experimental: as §1
(§3) Inhibiting effect to HIV-1 infection to human PBMC was investigated by the joint use of the compound of Example 2(1) with AMD 3100. The compound of Example 2(1) in various concentrations and AMD 3100 were added either solely or combinably and an assay was carried out. Inhibiting effects of both compounds when the p24 amount where the compounds are not added is defined as 100% are shown in terms of % control.

HIV-1MOKW = experiment: Inhibiting activity to HIV-1 infection to human PBMC (p24 antigen, EIA), wild-type HIV-1; conditions: Human immunodeficiency virus 1, read-out: IC50, inhibiting effect to infection to human PBMC
Experimental: as §1
(§4) Inhibiting effect of the compound of Example 2(1) to human PBMC infected by wild-type HIV-1 (HIV-1MOKW) and by multidrug resistant HIV-1 (HIV-1JSL and HIV-1MM) to reverse transcriptase inhibitor and protease inhibitor was investigated.

HIV-1MM = experiment: Inhibiting activity to HIV-1 infection to human PBMC (p24 antigen, EIA), multidrug resistant HIV-1; conditions: Human immunodeficiency virus 1, PBMC, read-out: IC50, inhibiting effect to infection to human PBMC
Experimental: as §1, §4

HIV-1JSL = experiment: as above; conditions: Human immunodeficiency virus 1, PBMC, read-out: IC50, inhibiting effect to infection to human PBMC
Experimental: as §1, §4

[1] = tested on: Mixed Virus of HIV-1BaL and HIV-1NL4-3 (1:1); experiment: Inhibiting activity to HIV-1 infection to human PBMC (p24 antigen, EIA), mixed virus; conditions: HIV-1BaL + HIV-1NL4-3 (1:1)
Experimental: as §1, §3

[2] = Example 2(1) 0.1 μM + AMD 3100 0.01 μM
[3] = Example 2(1) 0.1 μM + AMD 3100 0.1 μM
[4] = Example 2(1) 1 μM + AMD 3100 0.01 μM
[5] = Example 2(1) 1 μM + AMD 3100 0.1 μM

**Q.** Which results are given for `CC(C)(C)NC(=O)[C@@H]1C[C@@H]2CCCC[C@@H]2CN1C[C@@H](O)[C@H](Cc1ccccc1)NC(=O)[C@H](CC(N)=O)NC(=O)c1ccc2ccccc2n1` [Saquinavir, saquinavir, reference compound]?
**A.** p24 amount, % control (no compound = 100%) (HIV-1BaL; Saquinavir 1 nM alone): 78.1 % control; p24 amount, % control (no compound = 100%) (HIV-1BaL; Saquinavir 5 nM alone): 67.7 % control; p24 amount, % control (no compound = 100%) (HIV-1BaL; Saquinavir 0.01 μM alone): 53.8 % control; p24 amount, % control (no compound = 100%) (HIV-1BaL; Saquinavir 25 nM alone): 5.9 % control

**Q.** Which results are given for `CCCCN1C(=O)C(CC2CCCCC2)NC(=O)C12CCN(Cc1ccc3c(c1)OCCO3)CC2.Cl` (stereo not shown) [Example 2(1), 9-(1,4-benzodioxan-6-ylmethyl)-1-butyl-3-cyclohexylmethyl-2,5-dioxo-1,4,9-triazaspiro[5.5]undecane.hydrochloride]?
**A.** p24 amount, % control (no compound = 100%) (HIV-189.6; [2]): 38.0 % control; p24 amount, % control (no compound = 100%) (HIV-189.6; [3]): 6.0 % control; p24 amount, % control (no compound = 100%) (HIV-189.6; Example 2(1) 0.1 μM alone): 72.0 % control; p24 amount, % control (no compound = 100%) (HIV-189.6; [4]): 15.1 % control; p24 amount, % control (no compound = 100%) (HIV-189.6; [5]): 0.7 % control; p24 amount, % control (no compound = 100%) (HIV-189.6; Example 2(1) 1 μM alone): 64.5 % control; p24 amount, % control (no compound = 100%) (HIV-1BaL; Example 2(1) 0.1 μM + Saquinavir 0.01 μM): 44.3 % control; p24 amount, % control (no compound = 100%) (HIV-1BaL; Example 2(1) 0.1 μM alone): 75.4 % control; IC50 (HIV-1MOKW): 40 ± 29 nM; IC50 (HIV-1MM): 48 ± 62 nM; IC50 (HIV-1JSL): 64 ± 11 nM; p24 amount, % control (no compound = 100%) [1, 2]: 32.1 % control; p24 amount, % control (no compound = 100%) [1, 3]: 17.8 % control; p24 amount, % control (no compound = 100%) ([1]; Example 2(1) 0.1 μM alone): 63.8 % control; p24 amount, % control (no compound = 100%) [1, 4]: 10.5 % control; p24 amount, % control (no compound = 100%) [1, 5]: 1.5 % control; p24 amount, % control (no compound = 100%) ([1]; Example 2(1) 1 μM alone): 52.4 % control

**Q.** What does the source list for `CCCCN1C(=O)[C@@H]([C@H](O)C2CCCCC2)NC(=O)C12CCN(Cc1ccc(Oc3ccc(C(=O)O)cc3)cc1)CC2.Cl` [Example 75(54), (3R)-1-butyl-2,5-dioxo-3-((1R)-1-hydroxy-1-cyclohexylmethyl)-9-(4-(4-carboxyphenyloxy)phenylmethyl)-1,4,9-triazaspiro[5.5]undecane.hydrochloride]?
**A.** p24 amount, % control (no compound = 100%) (HIV-1BaL; Example 75(54) 0.2 nM + Saquinavir 1 nM): 66.0 % control; p24 amount, % control (no compound = 100%) (HIV-1BaL; Example 75(54) 0.2 nM + Saquinavir 5 nM): 52.0 % control; p24 amount, % control (no compound = 100%) (HIV-1BaL; Example 75(54) 0.2 nM + Saquinavir 25 nM): 5.7 % control; p24 amount, % control (no compound = 100%) (HIV-1BaL; Example 75(54) 0.2 nM alone): 64.2 % control; p24 amount, % control (no compound = 100%) (HIV-1BaL; Example 75(54) 1 nM + Saquinavir 1 nM): 32.8 % control; p24 amount, % control (no compound = 100%) (HIV-1BaL; Example 75(54) 1 nM + Saquinavir 5 nM): 29.3 % control; p24 amount, % control (no compound = 100%) (HIV-1BaL; Example 75(54) 1 nM + Saquinavir 25 nM): 3.8 % control; p24 amount, % control (no compound = 100%) (HIV-1BaL; Example 75(54) 1 nM alone): 34.2 % control; p24 amount, % control (no compound = 100%) (HIV-1BaL; Example 75(54) 5 nM + Saquinavir 1 nM): 10.8 % control; p24 amount, % control (no compound = 100%) (HIV-1BaL; Example 75(54) 5 nM + Saquinavir 5 nM): 6.1 % control; p24 amount, % control (no compound = 100%) (HIV-1BaL; Example 75(54) 5 nM + Saquinavir 25 nM): 1.6 % control; p24 amount, % control (no compound = 100%) (HIV-1BaL; Example 75(54) 5 nM alone): 10.6 % control

**Q.** `c1cc(CN2CCCNCCNCCCNCC2)ccc1CN1CCCNCCNCCCNCC1` [AMD 3100, reference compound] was tested. Which “p24 amount, % control (no compound = 100%)” value (HIV-189.6; AMD 3100 0.01 μM alone) did it give?
**A.** The value was 58.3 % control.

**Q.** And the “p24 amount, % control (no compound = 100%)” value (HIV-189.6; AMD 3100 0.1 μM alone)?
**A.** Its value is 6.9 % control.

**Q.** And the “p24 amount, % control (no compound = 100%)” value ([1]; AMD 3100 0.01 μM alone)?
**A.** The value was 59.1 % control.

**Q.** And the “p24 amount, % control (no compound = 100%)” value ([1]; AMD 3100 0.1 μM alone)?
**A.** The value was 44.2 % control.
